Source: patent publication US20100143475A1, “TRANSDERMAL THERAPEUTIC SYSTEM WITH TWO-PHASE RELEASE PROFILE” (priority 2006, published 2010)
Where two headings read alike, the source gives them in different places.

What was measured:
[1] = Oral ropinirole trial, comparison of central side effects (Table 5); format: in vivo, human; conditions: difference to placebo, up to 24 mg (8 mg TID), 6 months
[2] = oral, cited from earlier work
[3] = double blind, oral, PDR 58, 2004, cited from earlier work
[4] = 20 cm^2 TTS, plasma
From the text: The application site was the upper arm and changed from one arm to the other between two successive periods.

[5] = Double blind comparison of oral lisuride and placebo in 20 patients with Parkinson's disease; conditions: up to maximum tolerance dose of 5 mg daily, immediate-release tablet, eight of 20 patients
From the text: The dosage of other active substances was kept unchanged during the trial.

[6] = difference to placebo
[7] = cited from earlier work
[8] = up to 24 mg (8 mg TID) daily, 6 months
[9] = difference to placebo (footnote: less than placebo), transdermal, 2 (20 cm^2) QOD, 14 weeks
[10] = difference to placebo, transdermal, 2 (20 cm^2) QOD, 14 weeks
[11] = transdermal, 2 (20 cm^2) QOD, 14 weeks, 335 Parkinsonism patients
[12] = oral, 4.5 mg or max. tol. dose, 7 weeks dose esc. +4 weeks
[13] = oral, 4.5 mg or max. tol. dose daily, 7 weeks dose esc. +4 weeks

In the case of CCCN(CCC)CCc1cccc2c1CC(=O)N2 [Ropinirol], the “Confusion Δ” value [1] is reported as 7, the “Dizziness Δ” value [1] is reported as 10 and the “Drownsiness Δ” value [1] is reported as 12. For the same compound, the “Dyskinesias Δ” value [1] was 21, the “Hallucinations Δ” value [1] was 6 and the “Hypotension Δ” value [1] was 1. The “Nausea Δ” value [1] was 12, the “Other psych.* Δ” value [1] was 10 and the “Syncope Δ” value [1] was 1. For the same compound, the “Vomiting Δ” value [1] was 3, the “Other psych.*” value ([2]; amnesia, fear, abnormal dreams, nervousness, delusions, paranoid reactions, sleeplessness, up to 24 mg (8 mg TID), 6 months) was 19 and the Confusion [2, 8] was 9. The Dizziness [2, 8] was 26, the Drownsiness [2, 8] was 20 and the Dyskinesias [2, 8] was 34. For the same compound, the Hallucinations [2, 8] was 10, the Hypotension [2, 8] was 2 and the Nausea [2, 8] was 30. The Syncope [2, 8] was 3, the Vomiting [2, 8] was 7 and the Fatigue ([2]; data from restless legs study) was 8^♦. For the same compound, the “GI side effects: Nausea/vomiting (%)” value ([3]; dose range 0.5-5.0 mg, n = 157) was 45.8%.
In the case of CCN(CC)C(=O)N[C@H]1C=C2c3cccc4[nH]cc(c34)CC2N(C)C1 (some centres unmarked) [Lisuride, lisuride], the “Transition level” value ([4]; First application) is reported as 32 pg/mL, the Peak level ([4]; Fourth application) is reported as 140 pg/mL and the “Transition level” value ([4]; Fourth application) is reported as 32 pg/mL. The Peak level ([4]; Second application) was 125 pg/mL, the “Transition level” value ([4]; Second application) was 23 pg/mL and the Peak level ([4]; Third application) was 130 pg/mL. The “Transition level” value ([4]; Third application) was 31 pg/mL, the “Other psych.*” value (amnesia, fear, abnormal dreams, nervousness, delusions, paranoid reactions, sleeplessness, transdermal, 2 (20 cm^2) QOD, 14 weeks) was 8 and the “Skin reactions resulting in discontinuation Δ” value (difference to placebo) was 11.3. The “Dizziness Δ” value [9] was 0^♡, the “Other psych.* Δ” value [9] was 0^♡ and the “Confusion Δ” value [10] was 1.2. The “Drownsiness Δ” value [10] was 1.8, the “Dyskinesias Δ” value [10] was 4.1 and the “Fatigue Δ” value [10] was 1. For the same compound, the “Hallucinations Δ” value [10] was 3.6, the “Hypotension Δ” value [10] was 1.2 and the “Nausea Δ” value [10] was 0.6. For the same compound, the “Syncope Δ” value [10] was 0, the “Vomiting Δ” value [10] was 0.6 and the “Skin reactions resulting in discontinuation” value (lisuride group, transdermal, 14 weeks) was 12.5%. For the same compound, the Confusion [11] was 1.2, the Dizziness [11] was 0.6 and the Drownsiness [11] was 3.6. The Dyskinesias [11] was 7.1, the Fatigue [11] was 1 and the Hallucinations [11] was 5.4. For the same compound, the Hypotension [11] was 2.4, the Syncope [11] was 0 and the Vomiting [11] was 1.2. The “Gastrointestinal symptoms, in particular nausea (patients)” value [5] was 40%.
For C=CCN1C[C@H](C(=O)N(CCCN(C)C)C(=O)NCC)C[C@@H]2c3cccc4[nH]cc(c34)C[C@H]21 [Cabergoline], the “GI side effects: Nausea/vomiting (%)” value ([3]; dose range 0.25-1.0 mg, n = 221) is listed as 29.0%.
With CCCN[C@H]1CCc2nc(N)sc2C1 [Pramipexol] the “Hallucinations Δ” value ([6]; 8 month trial) was 13, the “Confusion Δ” value [6, 12] was 3 and the “Dizziness Δ” value [6, 12] was 0.2. For the same compound, the “Drownsiness Δ” value [6, 12] was 2, the “Dyskinesias Δ” value [6, 12] was 10.2 and the “Fatigue Δ” value [6, 12] was 24.9. For the same compound, the “Hypotension Δ” value [6, 12] was 6.5, the “Nausea Δ” value [6, 12] was 2 and the “Other psych.* Δ” value [6, 12] was 12.4. For the same compound, the “patients who reported hallucinations” value ([7]; 8 month trial) was 17%, the “Other psych.*” value ([7]; amnesia, fear, abnormal dreams, nervousness, delusions, paranoid reactions, sleeplessness, oral, 4.5 mg or max. tol. dose, 7 weeks dose esc. +4 weeks) was 28.3 and the Confusion [7, 13] was 10. For the same compound, the Dizziness [7, 13] was 2.9, the Drownsiness [7, 13] was 9 and the Dyskinesias [7, 13] was 14.7. For the same compound, the Fatigue [7, 13] was 29.4, the Hypotension [7, 13] was 8.8 and the Nausea [7, 13] was 8.8. For the same compound, the “GI side effects: Nausea/vomiting (%)” value ([3]; dose range 0.375-4.5 mg, n = 388) was 12.4%.
For CC(C)C[C@H]1C(=O)N2CCC[C@H]2[C@]2(O)O[C@](NC(=O)[C@@H]3C=C4c5cccc6[nH]c(Br)c(c56)C[C@H]4N(C)C3)(C(C)C)C(=O)N12 [Bromocriptine], the “GI side effects: Nausea/vomiting (%)” value ([3]; dose range 5.0-30.0 mg, n = 231) is given as 43%.
